Measurements reported in ChEMBL document CHEMBL4342436, “Artemisia: a promising plant for the treatment of cancer” (Bioorg Med Chem, 2020).
In brackets after ≈: the same amount, converted by molar mass.

Key:
HeLa [1] = assay: Cytotoxicity against human HeLa cells; format: functional, cell-based
Bel-7402 = assay: Cytotoxicity against human Bel7402 cells by MTT assay; format: functional, cell-based
A549 [2] = assay: Cytotoxicity against human A549 cells by MTT assay; format: functional, cell-based
HT-29 [3] = assay: Cytotoxicity against human HT-29 cells; format: functional; conditions: read-out: ED50 (the source's name)
KB [4] = assay: (§1) Cytotoxicity against human KB cells; format: functional; conditions: read-out: ED50 (the source's name)
P388 [5] = assay: Cytotoxicity against mouse P388 cells; format: functional; conditions: read-out: ED50 (the source's name)
MCF7 [6] = assay: (§2) Cytotoxicity against human MCF7 cells; format: functional; conditions: read-out: ED50 (the source's name)
HeLa [7] = assay: Cytotoxicity against human HeLa cells assessed as reduction in cell viability incubated for 48 hrs by MTT assay; format: functional, cell-based
MCF7 [8] = assay: Cytotoxicity against human MCF7 cells assessed as reduction in cell viability incubated for 48 hrs by MTT assay; format: functional, cell-based; conditions: MCF7, 48 h
PANC-1 [9] = assay: Antitumour activity against human PANC1 cells xenografted in ip dosed nude BALB/c mouse assessed as tumor weight for 18 days; format: functional
CFPAC-1 [10] = assay: Cytotoxicity against human CFPAC-1 cells assessed as cell viability after 24 hrs by MTT assay relative to control; format: functional
PANC-1 [11] = assay: Cytotoxicity against human PANC1 cells assessed as cell viability after 24 hrs by MTT assay relative to control; format: functional
CFPAC-1 [12] = assay: Antitumour activity against human CFPAC-1 cells xenografted in ip dosed nude BALB/c mouse assessed as tumor weight for 18 days; format: functional
XF498 = assay: Cytotoxicity against human XF498 cells by SRB assay; format: functional, cell-based
SK-MEL-2 [13] = assay: Cytotoxicity against human SK-MEL-2 cells by SRB assay; format: functional, cell-based
HCT-15 = assay: Cytotoxicity against human HCT15 cells by SRB assay; format: functional, cell-based
SK-OV-3 = assay: Cytotoxicity against human SKOV3 cells by SRB assay; format: functional, cell-based
A549 [14] = assay: Cytotoxicity against human A549 cells by SRB assay; format: functional, cell-based
HepG2 [15] = assay: Cytotoxicity against human HepG2 cells after 72 hrs by MTT assay; format: functional, cell-based; conditions: HepG2, 72 h
[16] = Cytotoxicity against mouse S17 cells after 72 hrs by MTT assay; format: functional, cell-based; conditions: S17, 72 h
SH-SY5Y = assay: Cytotoxicity against human SH-SY5Y cells after 72 hrs by MTT assay; format: functional, cell-based
P388 [17] = assay: Cytotoxicity against mouse P388 cells assessed as reduction in cell viability after 48 hrs by MTT assay; format: functional, cell-based; conditions: P388, 48 h
HT-29 [18] = assay: Cytotoxicity against human HT-29 cells assessed as reduction in cell viability after 48 hrs by MTT assay; format: functional, cell-based; conditions: HT-29, 48 h
L1210 = assay: Cytotoxicity against mouse L1210 cells assessed as reduction in cell viability after 48 hrs by MTT assay; format: functional, cell-based; conditions: L1210, 48 h
A549 [19] = assay: Cytotoxicity against human A549 cells assessed as reduction in cell viability after 48 hrs by MTT assay; format: functional, cell-based; conditions: A549, 48 h
[20] = Antioxidant activity assessed as ONOO scavenging activity; format: functional
SK-MEL-2 [21] = assay: Cytotoxicity against human SK-MEL-2 cells; format: functional, cell-based
LNCaP = assay: Cytotoxicity against human LNCAP cells; format: functional, cell-based
MCF7 [22] = assay: as §2; format: functional, cell-based
HepG2 [23] = assay: Cytotoxicity against human HepG2 cells; format: functional, cell-based
KB [24] = assay: as §1; format: functional, cell-based
HeLa [25] = assay: Cytotoxicity against human HeLa cells after 48 hrs by MTT assay; format: functional, cell-based
A549 [26] = assay: Cytotoxicity against human A549 cells after 48 hrs by MTT assay; format: functional, cell-based; conditions: A549, 48 h
U-937 = assay: Cytotoxicity against human U937 cells after 48 hrs by MTT assay; format: functional, cell-based; conditions: U-937, 48 h
HeLa [27] = assay: Cytotoxicity against human HeLa cells after 72 hrs by MTT assay; format: functional, cell-based
MCF7 [28] = assay: Cytotoxicity against human MCF7 cells after 72 hrs by MTT assay; format: functional, cell-based; conditions: MCF7, 72 h
A2780 = assay: Cytotoxicity against human A2780 cells after 72 hrs by MTT assay; format: functional, cell-based; conditions: A2780, 72 h
A-431 = assay: Cytotoxicity against human A431 cells after 72 hrs by MTT assay; format: functional, cell-based; conditions: A-431, 72 h

Work on O=c1cc(-c2ccc(O)cc2)oc2cc(O)cc(O)c12 [APIGENIN] yielded an IC50 (HeLa [1]) of 6.09 µM.
C=C1C(=O)O[C@H]2[C@H]1[C@@H](OC(C)=O)CC(=C)[C@]1(O)C[C@H](Cl)[C@@](C)(O)[C@H]21 gave an IC50 (Bel-7402) of 3.3 to 6 µM and an IC50 (A549 [2]) of 3.3 to 6 µM.
For COc1ccc(-c2oc3cc(OC)c(OC)c(O)c3c(=O)c2O)cc1OC, the EC50 (HT-29 [3]) was 1.25 to 9.62 µg/mL (≈ 3.34 to 25.7 µM), the EC50 (KB [4]) was 1.25 to 9.62 µg/mL (≈ 3.34 to 25.7 µM) and the EC50 (P388 [5]) was 1.25 to 9.62 µg/mL (≈ 3.34 to 25.7 µM). It also gave an EC50 (MCF7 [6]) of 1.25 to 9.62 µg/mL (≈ 3.34 to 25.7 µM).
For O=c1cc(-c2ccc(O)c(O)c2)oc2cc(O)cc(O)c12 [LUTEOLIN], the IC50 (HeLa [1]) was 16.3 µM.
For COc1cc(O)c2c(=O)c(OC)c(-c3ccc(O)cc3)oc2c1 [KUMATAKENIN], the IC50 (HeLa [7]) was 8.1 to 63.2 µM and the IC50 (MCF7 [8]) was 10.3 to 91.9 µM.
COc1cc(-c2oc3cc(O)cc(O)c3c(=O)c2OC)cc(O)c1OC gave an IC50 (HeLa [7]) of 8.1 to 63.2 µM and an IC50 (MCF7 [8]) of 10.3 to 91.9 µM.
In the case of CC(C)[C@]12O[C@H]1[C@@H]1O[C@]13[C@]1(O[C@H]1C[C@H]1C4=C(CC[C@@]13C)C(=O)OC4)[C@@H]2O [TRIPTOLIDE], the Activity (PANC-1 [9]) is reported as <0.4 g, the Activity (CFPAC-1 [10]) is reported as <10% and the Activity (PANC-1 [11]) is reported as <10%. The Activity (CFPAC-1 [12]) was <0.4 g.
In the case of COc1ccc(-c2cc(=O)c3c(O)c(OC)c(OC)cc3o2)cc1O [EUPATORIN], the IC50 (HeLa [7]) is reported as 8.1 to 63.2 µM and the IC50 (MCF7 [8]) is reported as 10.3 to 91.9 µM.
CC(C)=CCC[C@H](C)[C@H]1C[C@@H]2OO[C@H]1C=C2C gave an IC50 (XF498) of 0.1 to 0.87 µg/mL (≈ 0.423 to 3.68 µM), an IC50 (SK-MEL-2 [13]) of 0.1 to 0.87 µg/mL (≈ 0.423 to 3.68 µM) and an IC50 (HCT-15) of 0.1 to 0.87 µg/mL (≈ 0.423 to 3.68 µM). For the same compound, the IC50 (SK-OV-3) was 0.1 to 0.87 µg/mL (≈ 0.423 to 3.68 µM) and the IC50 (A549 [14]) was 0.1 to 0.87 µg/mL (≈ 0.423 to 3.68 µM).
With CC1=CCC2[C@@H]1[C@H]1OC(=O)[C@@H](C)[C@@H]1C[C@]1(C)O[C@H]21 (some centres not stated) the IC50 (HepG2 [15]) was 229 to 233 µM, the IC50 [16] was 229 to 233 µM and the IC50 (SH-SY5Y) was 229 to 233 µM.
Compound c1cc2c(cc1[C@H]1OC[C@H]3[C@@H]1CO[C@@H]3c1ccc3c(c1)OCO3)OCO2 [SESAMIN] has an IC50 (HepG2 [15]) of 229 to 233 µM, an IC50 [16] of 229 to 233 µM and an IC50 (SH-SY5Y) of 229 to 233 µM.
Compound C=C1C(=O)O[C@@H]2C[C@@]3(C)C=CC(=O)C(C)=C3C[C@H]12 has an IC50 (XF498) of 0.4 to 26.8 µg/mL (≈ 1.64 to 110 µM), an IC50 (SK-MEL-2 [13]) of 0.4 to 26.8 µg/mL (≈ 1.64 to 110 µM) and an IC50 (HCT-15) of 0.4 to 26.8 µg/mL (≈ 1.64 to 110 µM). For the same compound, the IC50 (SK-OV-3) was 0.4 to 26.8 µg/mL (≈ 1.64 to 110 µM) and the IC50 (A549 [14]) was 0.4 to 26.8 µg/mL (≈ 1.64 to 110 µM).
In the case of C[C@H]1[C@@H](O[C@@H](C#N)c2ccc(Br)cc2)O[C@@H]2O[C@@]3(C)CC[C@H]4[C@H](C)CC[C@@H]1[C@@]24OO3, the IC50 (P388 [17]) is reported as 0.01 to 0.49 µM, the IC50 (HT-29 [18]) is reported as 0.01 to 0.49 µM and the IC50 (L1210) is reported as 0.01 to 0.49 µM. For the same compound, the IC50 (A549 [19]) was 0.01 to 0.49 µM.
In the case of COc1cc(O)c2c(=O)cc(-c3ccc(O)cc3)oc2c1 [GENKWANIN], the IC50 (XF498) is reported as 0.4 to 26.8 µg/mL (≈ 1.41 to 94.3 µM), the IC50 [20] is reported as 1.01 µM and the IC50 (HeLa [7]) is reported as 8.1 to 63.2 µM. It also gave an IC50 (SK-MEL-2 [13]) of 0.4 to 26.8 µg/mL (≈ 1.41 to 94.3 µM), an IC50 (MCF7 [8]) of 10.3 to 91.9 µM and an IC50 (HCT-15) of 0.4 to 26.8 µg/mL (≈ 1.41 to 94.3 µM). For the same compound, the IC50 (SK-OV-3) was 0.4 to 26.8 µg/mL (≈ 1.41 to 94.3 µM) and the IC50 (A549 [14]) was 0.4 to 26.8 µg/mL (≈ 1.41 to 94.3 µM).
With C=C1C(=O)O[C@H]2[C@H]1CC[C@@](C)(O)C1=C[C@@H](O)[C@@](C)(O)[C@@H]12 the IC50 (SK-MEL-2 [21]) was > 100 µM, the IC50 (LNCaP) was > 100 µM and the IC50 (MCF7 [22]) was > 100 µM. For the same compound, the IC50 (HepG2 [23]) was > 100 µM and the IC50 (KB [24]) was > 100 µM.
Compound COc1cc(-c2oc3cc(O)cc(O)c3c(=O)c2O)ccc1O [ISORHAMNETIN] has an IC50 (HeLa [7]) of 8.1 to 63.2 µM and an IC50 (MCF7 [8]) of 10.3 to 91.9 µM.
With C=C1C(=O)O[C@H]2[C@H]1CC[C@@](C)(O)C1=C[C@H](O)[C@@](C)(O)[C@@H]12 the IC50 (SK-MEL-2 [21]) was > 100 µM, the IC50 (LNCaP) was > 100 µM and the IC50 (MCF7 [22]) was > 100 µM. The IC50 (HepG2 [23]) was > 100 µM and the IC50 (KB [24]) was > 100 µM.
C=C1C(=O)O[C@@H]2/C=C(\C)[C@@H](OC(=O)[C@@H](C)CC)C/C=C(\C)CC[C@@H]12 gave an IC50 (HeLa [25]) of 16 to 43.5 µg/mL (≈ 48.1 to 131 µM), an IC50 (A549 [26]) of 16 to 43.5 µg/mL (≈ 48.1 to 131 µM) and an IC50 (U-937) of 16 to 43.5 µg/mL (≈ 48.1 to 131 µM).
In the case of COc1cc2ccc(=O)oc2c(OC)c1O, the IC50 (XF498) is reported as 0.4 to 26.8 µg/mL (≈ 1.8 to 121 µM), the IC50 (SK-MEL-2 [13]) is reported as 0.4 to 26.8 µg/mL (≈ 1.8 to 121 µM) and the IC50 (HCT-15) is reported as 0.4 to 26.8 µg/mL (≈ 1.8 to 121 µM). For the same compound, the IC50 (SK-OV-3) was 0.4 to 26.8 µg/mL (≈ 1.8 to 121 µM) and the IC50 (A549 [14]) was 0.4 to 26.8 µg/mL (≈ 1.8 to 121 µM).
C=C1C(=O)O[C@H]2[C@H]1CC[C@@](C)(O)[C@]13O[C@H]1[C@H](Cl)[C@@](C)(O)[C@H]23 showed an IC50 (Bel-7402) of 3.3 to 6 µM, an IC50 (A549 [2]) of 3.3 to 6 µM and an IC50 (HeLa [27]) of 33 to 75 µg/mL (≈ 105 to 238 µM). The IC50 (MCF7 [28]) was 33 to 75 µg/mL (≈ 105 to 238 µM), the IC50 (A2780) was 33 to 75 µg/mL (≈ 105 to 238 µM) and the IC50 (A-431) was 33 to 75 µg/mL (≈ 105 to 238 µM).
